Read-outs that look alike come from different tables or passages of the source. Marks after values point to notes of the source that are not given here.
Key:
[1] = molecular target: T1, epithelial sodium channel (Canis lupus familiaris, UniProt A0A8I3MKE6+A0A8I3Q679+Q95165); test: Inhibition of short-circuit current (ISC) in airway epithelial monolayers in Ussing chambers; assay type: cell-based, canine
T1 construct: endogenous in cells; host or cells: primary canine bronchial epithelial cells cultured at air-liquid interface
T1 sequence (A0A8I3Q679 1-649): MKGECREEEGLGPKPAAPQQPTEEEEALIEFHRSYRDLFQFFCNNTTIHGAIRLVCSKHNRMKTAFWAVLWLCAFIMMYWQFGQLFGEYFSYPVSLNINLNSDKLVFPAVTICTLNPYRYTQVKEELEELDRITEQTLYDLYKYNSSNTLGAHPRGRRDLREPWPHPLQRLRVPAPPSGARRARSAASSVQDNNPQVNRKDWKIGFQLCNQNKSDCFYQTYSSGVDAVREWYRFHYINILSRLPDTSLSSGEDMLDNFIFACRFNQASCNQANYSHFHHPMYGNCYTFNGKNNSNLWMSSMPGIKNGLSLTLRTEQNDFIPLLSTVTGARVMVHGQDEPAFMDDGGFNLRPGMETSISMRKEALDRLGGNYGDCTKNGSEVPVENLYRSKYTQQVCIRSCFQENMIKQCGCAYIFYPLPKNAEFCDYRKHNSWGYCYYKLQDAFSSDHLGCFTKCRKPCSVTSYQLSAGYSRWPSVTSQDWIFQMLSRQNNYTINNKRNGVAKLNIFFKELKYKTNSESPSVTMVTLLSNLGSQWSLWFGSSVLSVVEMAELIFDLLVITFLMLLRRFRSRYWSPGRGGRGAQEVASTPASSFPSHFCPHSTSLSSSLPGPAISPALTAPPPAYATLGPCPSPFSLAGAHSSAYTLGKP
T1 sequence (Q95165 1-641): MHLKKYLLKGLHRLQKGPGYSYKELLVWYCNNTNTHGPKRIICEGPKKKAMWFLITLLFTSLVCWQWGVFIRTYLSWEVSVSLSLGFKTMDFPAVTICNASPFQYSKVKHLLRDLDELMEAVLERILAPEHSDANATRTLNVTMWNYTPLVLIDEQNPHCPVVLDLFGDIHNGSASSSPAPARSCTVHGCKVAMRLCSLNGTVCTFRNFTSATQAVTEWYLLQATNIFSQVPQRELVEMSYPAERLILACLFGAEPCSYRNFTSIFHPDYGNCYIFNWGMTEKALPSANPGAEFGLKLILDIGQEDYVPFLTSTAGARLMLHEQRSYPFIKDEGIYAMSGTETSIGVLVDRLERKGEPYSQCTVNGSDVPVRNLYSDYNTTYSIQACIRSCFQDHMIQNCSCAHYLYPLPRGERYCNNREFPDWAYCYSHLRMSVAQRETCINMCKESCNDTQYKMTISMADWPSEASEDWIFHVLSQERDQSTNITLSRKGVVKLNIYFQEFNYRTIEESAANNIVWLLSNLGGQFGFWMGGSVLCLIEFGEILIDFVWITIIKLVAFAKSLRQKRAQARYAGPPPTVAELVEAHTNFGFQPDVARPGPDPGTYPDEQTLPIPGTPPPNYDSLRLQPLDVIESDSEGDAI
T1 sequence (A0A8I3MKE6 1-646): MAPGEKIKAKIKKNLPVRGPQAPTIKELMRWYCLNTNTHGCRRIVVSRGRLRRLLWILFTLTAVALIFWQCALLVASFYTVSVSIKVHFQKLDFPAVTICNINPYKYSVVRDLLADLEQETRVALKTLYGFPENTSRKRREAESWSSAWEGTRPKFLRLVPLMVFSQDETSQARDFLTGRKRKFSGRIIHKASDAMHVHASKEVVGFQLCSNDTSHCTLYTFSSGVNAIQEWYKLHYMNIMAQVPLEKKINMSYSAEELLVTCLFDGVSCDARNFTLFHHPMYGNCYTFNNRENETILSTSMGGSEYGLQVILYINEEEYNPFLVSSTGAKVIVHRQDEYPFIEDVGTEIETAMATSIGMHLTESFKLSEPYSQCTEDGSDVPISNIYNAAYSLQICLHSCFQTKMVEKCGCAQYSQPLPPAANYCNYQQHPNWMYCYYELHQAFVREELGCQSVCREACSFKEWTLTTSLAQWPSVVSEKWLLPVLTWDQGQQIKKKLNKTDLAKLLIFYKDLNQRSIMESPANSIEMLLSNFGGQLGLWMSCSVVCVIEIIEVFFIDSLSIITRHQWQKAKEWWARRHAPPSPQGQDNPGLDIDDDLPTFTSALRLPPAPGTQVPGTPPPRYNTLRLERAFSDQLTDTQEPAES
Experimental: One assay used to assess mechanism of action and/or potency of the compounds of the present invention involves the determination of lumenal drug inhibition of airway epithelial sodium currents measured under short circuit current (ISC) using airway epithelial monolayers mounted in Using chambers. Cells obtained from freshly excised human, dog, sheep or rodent airways are seeded onto porous 0.4 micron Snapwelff Inserts (CoStar), cultured at air-liquid interface (ALI) conditions in hormonally defined media, and assayed for sodium transport activity (ISC) while bathed in Krebs Bicarbonate Ringer (KBR) in Using chambers. All test drug additions are to the lumenal bath with half-log dose addition protocols (from 1×10^−11 M to 3×10^−5 M), and the cumulative change in ISC (inhibition) recorded. All drugs are prepared in dimethyl sulfoxide as stock solutions at a concentration of 1×10^−2 M and stored at −20° C. […] After the maximal concentration ([…]) is administered, the lumenal bath is exchanged three times with fresh drug-free KBR solution, and the resultant ISC measured after each wash for approximately 5 minutes in duration. Reversibility is defined as the percent return to the baseline value for sodium current after the third wash. All data from the voltage clamps are collected via a computer interface and analyzed off-line.
Dose-effect relationships for all compounds are considered and analyzed by the Prism 3.0 program.

Sheep MCC = test: Mucociliary clearance (MCC) studies in sheep; assay type: in vivo; details: sheep
Experimental: The animal model that has been used most often to measure changes in MCC is the sheep model. The effect of compounds for enhancing mucociliary clearance (MCC) can be measured using an in vivo model described by Sabater et al., Journal of Applied Physiology, 1999, pp. 2191-2196, incorporated herein by reference.
In these studies, adult sheep were restrained and nasally intubated with an endotracheal tube. Aerosolized test articles were administered over 10-15 minutes to sheep. Radiolabeled ^99mTc-sulfur colloid (TSC, 3.1 mg/mL; containing approximately 20 mCi) was then administered at a specified time four or eight hours after test article. The radiolabeled aerosol was administered through the endotracheal tube for about 5 minutes. The sheep were then extubated, and total radioactive counts in the lung were measured every 5 minutes for a 1-hour observation period. The rate of radiolabel clearance from the lung is representative of the MCC rate in the animal. The advantage of this system is that it closely simulates the human lung environment. The model also allows for the collection of simultaneous PK/PD information through plasma and urine sampling over the test period. There are also several techniques to measure the drug concentrations on the airway surface during the MCC measurements. These include the collection of exhaled breath condensates or a filter paper method to obtain ASL via bronchoscopy.
The ovine model described above was used to evaluate the in vivo effects (efficacy/durability) of aerosol-delivered test agent on MCC. Treatments consisting of either 4 mL of test agent or test agent in combination with HS were tested. To determine if combining HS with test agent enhanced MCC, HS was administered immediately following test agent administration. Test solutions were aerosolized using a Raindrop nebulizer at a flowrate of eight liters per minute and connected to a dosimetry system consisting of a solenoid valve and a source of compressed air (20 psi). The deposited dose of drug in sheep lungs after an aerosol administration using the Raindrop nebulizer is estimated to be 8-15% of the dose. Using a Raindrop nebulizer, radiolabeled TSC was administered over approximately 3 minutes either 4 or 8 hours after drug treatment to evaluate efficacy/durability. Radioactive counts were measured in a central region in the right lung at 5 min intervals for one hour with a gamma camera. Three methods of analysis were utilized, 1) initial rate of clearance (slope) over the first 30 min fitted using linear regression 2) area under the curve for % clearance over time over one hour, and 3) the maximum clearance obtained in one hour.

[2] = canine bronchial epithelial cells, short-circuit current, read-out: Potency of Sodium Channel Blockade IC50
[3] = aerosol, 0.24 nmol/kg (3 μM), MCC at 8 h post-dose

Row | IC50 [1, 2] [nM] | SMILES | further results
1 | 21.2 | N=C(NCCCCc1ccc2cc(C[C@H](N)C(=O)Nc3ccc(CCCN(C[C@H](O)[C@@H](O)[C@H](O)[C@H](O)CO)C[C@H](O)[C@@H](O)[C@H](O)[C@H](O)CO)cc3)ccc2c1)NC(=O)c1nc(Cl)c(N)nc1N [Compound 94, 3,5-diamino-N—(N-(4-(6-((S)-2-amino-3-(4-(3-(bis((2S,3R,4R,5R)-2,3,4,5,6-pentahydroxyhexyl)amino)propyl)phenylamino)-3-oxopropyl)naphthalen-2-yl)butyl)carbamimidoyl)-6-chloropyrazine-2-carboxamide] | 
2 | 15.5 | N=C(NCCCCc1ccc(C[C@H](N)C(=O)Nc2ccc(CCCCCCNC[C@H](O)[C@@H](O)[C@H](O)[C@H](O)CO)cc2)c2ccccc12)NC(=O)c1nc(Cl)c(N)nc1N [Compound 53, 3,5-diamino-N—(N-(4-(4-((S)-2-amino-3-oxo-3-(4-(6-((2S,3R,4R,5R)-2,3,4,5,6-pentahydroxyhexylamino)hexyl)phenylamino)propyl)naphthalen-1-yl)butyl)carbamimidoyl)-6-chloropyrazine-2-carboxamide] | 
3 | 7.4 | CCCCCCN(CCCc1ccc(NC(=O)[C@@H](N)Cc2ccc(CCCCNC(=N)NC(=O)c3nc(Cl)c(N)nc3N)c3ccccc23)cc1)C[C@H](O)[C@@H](O)[C@H](O)[C@H](O)CO [Compound 28, 3,5-diamino-N—(N-(4-(4-((S)-2-amino-3-(4-(3-(hexyl((2S,3R,4R,5R)-2,3,4,5,6-pentahydroxyhexyl)amino)propyl)phenylamino)-3-oxopropyl)naphthalen-1-yl)butyl)carbamimidoyl)-6-chloropyrazine-2-carboxamide] | 
4 | 5.2 | CN(C)CCCc1ccc(NC(=O)[C@@H](N)Cc2ccc(CCCCNC(=N)NC(=O)c3nc(Cl)c(N)nc3N)c3c2CCCC3)cc1 [Compound 135, (S)-3,5-diamino-N—(N-(4-(4-(2-amino-3-(4-(3-(dimethylamino)propyl)phenylamino)-3-oxopropyl)-5,6,7,8-tetrahydronaphthalen-1-yl)butyl)carbamimidoyl)-6-chloropyrazine-2-carboxamide] | 
5 | 10.6 | CCCCCCN(CCCCCCc1ccc(NC(=O)[C@@H](N)Cc2ccc(CCCCNC(=N)NC(=O)c3nc(Cl)c(N)nc3N)c3ccccc23)cc1)C[C@H](O)[C@@H](O)[C@H](O)[C@H](O)CO [Compound 58, 3,5-diamino-N—(N-(4-(4-((S)-2-amino-3-(4-(6-(hexyl((2S,3R,4R,5R)-2,3,4,5,6-pentahydroxyhexyl)amino)hexyl)phenylamino)-3-oxopropyl)naphthalen-1-yl)butyl)carbamimidoyl)-6-chloropyrazine-2-carboxamide] | 

Continued, compound first:

Row | SMILES | IC50 [1, 2] [nM] | further results
6 | N=C(NCCCCc1ccc(C[C@H](N)C(=O)O)c2c1CCCC2)NC(=O)c1nc(Cl)c(N)nc1N [Compound 139, (S)-2-amino-3-(4-(4-(3-(3,5-diamino-6-chloropyrazine-2-carbonyl)guanidino)butyl)-5,6,7,8-tetrahydronaphthalen-1-yl)propanoic acid] | 73.7 | 
7 | N=C(NCCCCc1ccc(C[C@H](N)C(=O)O)c2ccccc12)NC(=O)c1nc(Cl)c(N)nc1N [Compound 16, (S)-2-amino-3-(4-(4-(3-(3,5-diamino-6-chloropyrazine-2-carbonyl)guanidino)butyl)naphthalen-1-yl)propanoic acid] | 79.6 | 
8 | CN(C)CCCc1ccc(NC(=O)[C@@H](N)Cc2ccc3cc(CCCCNC(=N)NC(=O)c4nc(Cl)c(N)nc4N)ccc3c2)cc1 [Compound 103, (S)-3,5-diamino-N—(N-(4-(6-(2-amino-3-(4-(3-(dimethylamino)propyl)phenylamino)-3-oxopropyl)naphthalen-2-yl)butyl)carbamimidoyl)-6-chloropyrazine-2-carboxamide] | 17.9 | 
9 | NC(=NC(=O)c1nc(Cl)c(N)nc1N)NCCCCc1ccc(C[C@H](N)C(=O)Nc2ccc(CCCNC[C@H](O)[C@@H](O)[C@H](O)[C@H](O)CO)cc2)c2c1CCCC2 [Compound 131] |  | IC50 [1]: 6 nM
10 | N=C(NCCCCc1ccc(C[C@@H](N)C(=O)Nc2ccc(CCCN(C[C@H](O)[C@@H](O)[C@H](O)[C@H](O)CO)C[C@H](O)[C@@H](O)[C@H](O)[C@H](O)CO)cc2)c2ccccc12)NC(=O)c1nc(Cl)c(N)nc1N [Compound 152, 3,5-diamino-N—(N-(4-(4-((R)-2-amino-3-(4-(3-(bis((2S,3R,4R,5R)-2,3,4,5,6-pentahydroxyhexyl)amino)propyl)phenylamino)-3-oxopropyl)naphthalen-1-yl)butyl)carbamimidoyl)-6-chloropyrazine-2-carboxamide] |  | duration of action on MCC vs. vehicle (Sheep MCC; 8 hours post dose): enhanced duration action of MCC vs. vehicle; AUC (% Cl-h) (Sheep MCC; [3]): 17.4* (4) % Cl-h; Initial Slope (8.0-8.5 h) (Sheep MCC; [3]): 37.5* (4)
